Source: the kinase profiling compilation of Christmann-Franck et al. (2016)

What was measured:
Assay in all cases: KINOMEscan competition binding
Conditions in all cases: compound 10.0 µM
[1] = target: JAK1 JH2 pseudokinase (human) (UniProt P23458)
MAP4K2 (human) = MAP4K2 (human) (UniProt Q12851)
CAMK1D (human) = CAMK1D (human) (UniProt Q8IU85)
MYO3A (human) = MYO3A (human) (UniProt Q8NEV4)
RPS6KA3 KD2 (human) = RPS6KA3 KD2 (human) (UniProt P51812)
WNK3 (human) = WNK3 (human) (UniProt Q9BYP7)
MAP2K2 (human) = MAP2K2 (human) (UniProt P36507)
EIF2AK2 (human) = EIF2AK2 (human) (UniProt P19525)
SRPK2 (human) = SRPK2 (human) (UniProt P78362)
GRK1 (human) = GRK1 (human) (UniProt Q15835)
[2] = system: MET (human), P08581 [M1250T]
PKN3 (M.tuberculosis) = PKN3 (M.tuberculosis) (UniProt Q6P5Z2)
CDK16 (human) = CDK16 (human) (UniProt Q00536)
[3] = target: JAK1 JH1 catalytic (human) (UniProt P23458)
GSG2 (human) = GSG2 (human) (UniProt Q8TF76)
BRAF (human) = BRAF (human) (UniProt P15056)
STK17A (human) = STK17A (human) (UniProt Q9UEE5)
EPHA8 (human) = EPHA8 (human) (UniProt P29322)
NEK6 (human) = NEK6 (human) (UniProt Q9HC98)
Sequence of NEK6 (human) (Q9HC98 whole entry, looked up): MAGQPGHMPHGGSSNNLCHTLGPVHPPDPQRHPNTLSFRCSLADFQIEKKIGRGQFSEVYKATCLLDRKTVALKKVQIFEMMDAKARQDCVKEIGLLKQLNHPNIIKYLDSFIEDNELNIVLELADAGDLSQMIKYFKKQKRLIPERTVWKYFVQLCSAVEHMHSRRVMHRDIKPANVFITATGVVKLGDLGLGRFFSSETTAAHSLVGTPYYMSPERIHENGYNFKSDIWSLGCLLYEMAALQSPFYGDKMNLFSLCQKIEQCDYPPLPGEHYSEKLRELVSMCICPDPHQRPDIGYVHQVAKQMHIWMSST

RPS6KA5 KD2 (human) = RPS6KA5 KD2 (human) (UniProt O75582)
Sequence of RPS6KA5 KD2 (human) (O75582 whole entry, looked up): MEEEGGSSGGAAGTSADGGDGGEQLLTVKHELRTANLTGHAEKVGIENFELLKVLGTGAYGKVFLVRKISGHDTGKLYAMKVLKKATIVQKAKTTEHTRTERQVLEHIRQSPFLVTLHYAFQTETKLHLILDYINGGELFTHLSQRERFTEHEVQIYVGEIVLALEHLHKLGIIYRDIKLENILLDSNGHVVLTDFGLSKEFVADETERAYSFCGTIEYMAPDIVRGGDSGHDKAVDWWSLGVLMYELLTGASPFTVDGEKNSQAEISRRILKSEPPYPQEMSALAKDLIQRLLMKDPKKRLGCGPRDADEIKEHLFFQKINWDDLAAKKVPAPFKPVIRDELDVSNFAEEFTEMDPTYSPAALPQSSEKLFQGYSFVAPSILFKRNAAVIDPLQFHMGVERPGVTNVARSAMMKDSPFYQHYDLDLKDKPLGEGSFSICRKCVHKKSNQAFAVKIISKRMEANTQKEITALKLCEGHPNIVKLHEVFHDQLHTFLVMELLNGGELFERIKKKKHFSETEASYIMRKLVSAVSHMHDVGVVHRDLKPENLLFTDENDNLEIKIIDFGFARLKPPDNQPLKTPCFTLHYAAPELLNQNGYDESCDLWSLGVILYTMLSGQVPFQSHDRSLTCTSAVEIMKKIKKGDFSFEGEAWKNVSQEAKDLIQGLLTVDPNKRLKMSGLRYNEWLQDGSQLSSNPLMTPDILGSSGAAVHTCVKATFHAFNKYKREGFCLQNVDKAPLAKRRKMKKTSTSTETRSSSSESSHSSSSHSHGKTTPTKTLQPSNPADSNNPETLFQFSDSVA

LRRK2 (human) = LRRK2 (human) (UniProt Q5S007)
PRKCQ (human) = PRKCQ (human) (UniProt Q04759)
MAK (human) = MAK (human) (UniProt P20794)
PRKCI (human) = PRKCI (human) (UniProt P41743)
FES (human) = FES (human) (UniProt P07332)
VRK2 (human) = VRK2 (human) (UniProt Q86Y07)
LATS2 (human) = LATS2 (human) (UniProt Q9NRM7)
CAMK2G (human) = CAMK2G (human) (UniProt Q13555)
Sequence of CAMK2G (human) (Q13555 whole entry, looked up): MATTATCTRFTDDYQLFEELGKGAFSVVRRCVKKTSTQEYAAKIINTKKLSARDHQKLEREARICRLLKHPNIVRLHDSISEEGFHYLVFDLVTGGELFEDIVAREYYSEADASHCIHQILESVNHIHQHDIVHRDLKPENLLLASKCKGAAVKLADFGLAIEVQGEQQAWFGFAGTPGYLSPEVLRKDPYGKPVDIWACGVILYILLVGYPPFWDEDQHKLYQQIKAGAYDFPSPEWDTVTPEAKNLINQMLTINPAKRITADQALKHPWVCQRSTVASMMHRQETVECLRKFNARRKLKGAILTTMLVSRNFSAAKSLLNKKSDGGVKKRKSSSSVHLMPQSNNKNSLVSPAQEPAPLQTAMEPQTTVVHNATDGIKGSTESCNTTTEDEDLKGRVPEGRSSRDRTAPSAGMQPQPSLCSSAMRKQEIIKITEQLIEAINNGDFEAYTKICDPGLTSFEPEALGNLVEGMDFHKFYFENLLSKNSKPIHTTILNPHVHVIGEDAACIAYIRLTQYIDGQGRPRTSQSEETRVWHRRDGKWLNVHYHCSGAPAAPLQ

MAP3K13 (human) = MAP3K13 (human) (UniProt O43283)
MAP3K11 (human) = MAP3K11 (human) (UniProt Q16584)
CSNK1A1 (human) = CSNK1A1 (human) (UniProt P48729)
TSSK1B (human) = TSSK1B (human) (UniProt Q9BXA7)
CSK (human) = CSK (human) (UniProt P41240)
CSNK2A1 (human) = CSNK2A1 (human) (UniProt P68400)
DAPK1 (human) = DAPK1 (human) (UniProt P53355)
Sequence of DAPK1 (human) (P53355 whole entry, looked up): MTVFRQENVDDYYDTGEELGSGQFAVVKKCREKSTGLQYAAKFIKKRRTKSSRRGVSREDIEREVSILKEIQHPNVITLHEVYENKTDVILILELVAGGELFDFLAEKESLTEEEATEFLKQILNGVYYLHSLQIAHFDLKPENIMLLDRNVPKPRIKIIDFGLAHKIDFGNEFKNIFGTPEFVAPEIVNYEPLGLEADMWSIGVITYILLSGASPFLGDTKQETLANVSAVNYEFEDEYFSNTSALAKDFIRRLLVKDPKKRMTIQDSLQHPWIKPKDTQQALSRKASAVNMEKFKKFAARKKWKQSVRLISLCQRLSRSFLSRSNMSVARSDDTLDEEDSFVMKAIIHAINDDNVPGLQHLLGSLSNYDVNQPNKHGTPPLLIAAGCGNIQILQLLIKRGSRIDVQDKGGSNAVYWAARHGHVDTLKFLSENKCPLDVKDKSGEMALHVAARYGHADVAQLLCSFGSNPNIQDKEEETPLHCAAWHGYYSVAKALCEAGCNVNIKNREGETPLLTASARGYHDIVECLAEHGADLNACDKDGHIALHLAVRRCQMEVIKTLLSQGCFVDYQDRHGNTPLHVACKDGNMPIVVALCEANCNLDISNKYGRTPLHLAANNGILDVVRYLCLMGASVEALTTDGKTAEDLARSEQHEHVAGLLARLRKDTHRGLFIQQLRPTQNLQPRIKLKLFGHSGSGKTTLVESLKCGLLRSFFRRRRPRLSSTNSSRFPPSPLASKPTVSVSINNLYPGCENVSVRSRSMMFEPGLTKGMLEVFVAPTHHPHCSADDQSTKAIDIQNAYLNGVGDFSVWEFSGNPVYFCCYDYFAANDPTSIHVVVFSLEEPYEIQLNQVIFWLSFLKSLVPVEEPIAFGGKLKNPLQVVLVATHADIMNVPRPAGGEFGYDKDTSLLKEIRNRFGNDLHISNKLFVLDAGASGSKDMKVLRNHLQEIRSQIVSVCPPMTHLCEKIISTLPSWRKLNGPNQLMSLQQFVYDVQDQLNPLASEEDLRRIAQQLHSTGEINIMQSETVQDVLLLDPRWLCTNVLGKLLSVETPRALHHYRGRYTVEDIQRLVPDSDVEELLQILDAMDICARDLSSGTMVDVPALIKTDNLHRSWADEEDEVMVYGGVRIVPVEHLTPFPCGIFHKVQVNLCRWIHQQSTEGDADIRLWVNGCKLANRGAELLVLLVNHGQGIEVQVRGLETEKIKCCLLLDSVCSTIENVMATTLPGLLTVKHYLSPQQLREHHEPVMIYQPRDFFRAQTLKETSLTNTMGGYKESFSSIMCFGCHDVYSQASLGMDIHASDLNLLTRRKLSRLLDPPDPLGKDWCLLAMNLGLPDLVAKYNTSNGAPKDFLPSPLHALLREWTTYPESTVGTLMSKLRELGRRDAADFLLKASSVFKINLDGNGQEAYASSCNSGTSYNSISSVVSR

[4] = target: TYK2 JH1 catalytic (human) (UniProt P29597)
CDC42BPA (human) = CDC42BPA (human) (UniProt Q5VT25)
Sequence of CDC42BPA (human) (Q5VT25 whole entry, looked up): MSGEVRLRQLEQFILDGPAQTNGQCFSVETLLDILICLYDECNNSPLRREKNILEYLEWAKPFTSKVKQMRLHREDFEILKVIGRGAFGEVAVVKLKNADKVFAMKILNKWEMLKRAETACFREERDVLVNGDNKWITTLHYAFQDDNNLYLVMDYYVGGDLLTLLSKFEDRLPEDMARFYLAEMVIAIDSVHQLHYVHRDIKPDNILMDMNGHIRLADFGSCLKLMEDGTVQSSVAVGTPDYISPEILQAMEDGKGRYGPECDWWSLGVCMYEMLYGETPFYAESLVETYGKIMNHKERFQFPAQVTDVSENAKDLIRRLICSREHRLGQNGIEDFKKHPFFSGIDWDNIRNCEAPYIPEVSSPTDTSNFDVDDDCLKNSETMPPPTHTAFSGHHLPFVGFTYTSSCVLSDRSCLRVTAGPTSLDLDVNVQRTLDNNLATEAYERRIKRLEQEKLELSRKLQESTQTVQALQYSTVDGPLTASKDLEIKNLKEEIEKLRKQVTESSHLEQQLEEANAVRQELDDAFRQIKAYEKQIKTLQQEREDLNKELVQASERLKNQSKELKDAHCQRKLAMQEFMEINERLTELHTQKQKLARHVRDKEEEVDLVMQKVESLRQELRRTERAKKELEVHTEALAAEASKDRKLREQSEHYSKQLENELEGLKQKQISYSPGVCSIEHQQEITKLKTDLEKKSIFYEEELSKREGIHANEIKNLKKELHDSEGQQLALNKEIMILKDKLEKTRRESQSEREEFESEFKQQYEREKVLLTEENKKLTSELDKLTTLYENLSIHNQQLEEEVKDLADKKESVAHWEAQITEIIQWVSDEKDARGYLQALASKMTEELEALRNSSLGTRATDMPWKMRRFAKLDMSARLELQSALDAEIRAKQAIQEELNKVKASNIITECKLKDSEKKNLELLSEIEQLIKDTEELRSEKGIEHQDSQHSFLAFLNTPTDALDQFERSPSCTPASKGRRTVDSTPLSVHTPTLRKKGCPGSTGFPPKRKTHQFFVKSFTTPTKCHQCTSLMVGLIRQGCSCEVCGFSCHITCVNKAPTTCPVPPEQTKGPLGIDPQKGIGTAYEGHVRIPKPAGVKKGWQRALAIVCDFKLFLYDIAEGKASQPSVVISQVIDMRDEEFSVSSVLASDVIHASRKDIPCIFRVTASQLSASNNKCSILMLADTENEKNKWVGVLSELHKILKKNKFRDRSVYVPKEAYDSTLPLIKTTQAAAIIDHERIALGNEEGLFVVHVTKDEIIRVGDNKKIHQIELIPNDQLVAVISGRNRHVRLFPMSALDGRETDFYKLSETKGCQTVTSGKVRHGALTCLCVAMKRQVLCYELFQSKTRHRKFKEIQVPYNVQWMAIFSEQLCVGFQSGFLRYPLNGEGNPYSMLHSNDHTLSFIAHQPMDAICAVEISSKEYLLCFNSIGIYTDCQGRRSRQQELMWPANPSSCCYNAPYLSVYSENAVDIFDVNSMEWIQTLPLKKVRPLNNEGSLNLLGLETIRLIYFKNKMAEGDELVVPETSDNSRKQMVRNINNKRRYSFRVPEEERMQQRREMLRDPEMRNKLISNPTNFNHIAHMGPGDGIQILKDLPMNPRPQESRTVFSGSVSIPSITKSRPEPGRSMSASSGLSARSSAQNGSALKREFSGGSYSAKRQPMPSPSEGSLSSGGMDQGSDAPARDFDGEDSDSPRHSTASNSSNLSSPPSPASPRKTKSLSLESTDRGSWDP

CDK2 (human) = CDK2 (human) (UniProt P24941)
SGK110 (human) = SGK110 (human) (UniProt P0C264)
ABL1 (human) = ABL1 (human) (UniProt P00519)

Question: How did the kinase still bound, per cent of control [1] turn out when `O=c1[nH]c2ccccc2n1C1CCN(Cc2ccc(-c3nc4cc5[nH]cnc5cc4nc3-c3ccccc3)cc2)CC1` was run?
Answer: 79%

Question: What about the kinase still bound, per cent of control (MAP4K2 (human)) of the same compound?
Answer: 71%

Question: What about the kinase still bound, per cent of control (CAMK1D (human)) of the same compound?
Answer: 76%

Question: What about the kinase still bound, per cent of control (MYO3A (human)) of the same compound?
Answer: 100%

Question: And the kinase still bound, per cent of control (RPS6KA3 KD2 (human))?
Answer: 100%

Question: What about the kinase still bound, per cent of control (WNK3 (human)) of the same compound?
Answer: 95%

Question: And the kinase still bound, per cent of control (MAP2K2 (human))?
Answer: 75%

Question: And the kinase still bound, per cent of control (EIF2AK2 (human))?
Answer: 100%

Question: What about the kinase still bound, per cent of control (SRPK2 (human)) of the same compound?
Answer: 85%

Question: What about the kinase still bound, per cent of control (GRK1 (human)) of the same compound?
Answer: 100%

Question: What about the kinase still bound, per cent of control [2] of the same compound?
Answer: 28%

Question: What about the kinase still bound, per cent of control (PKN3 (M.tuberculosis)) of the same compound?
Answer: 78%

Question: What about the kinase still bound, per cent of control (CDK16 (human)) of the same compound?
Answer: 97%

Question: And the kinase still bound, per cent of control [3]?
Answer: 100%

Question: And the kinase still bound, per cent of control (GSG2 (human))?
Answer: 100%

Question: And the kinase still bound, per cent of control (BRAF (human))?
Answer: 87%

Question: What about the kinase still bound, per cent of control (STK17A (human)) of the same compound?
Answer: 100%

Question: What about the kinase still bound, per cent of control (EPHA8 (human)) of the same compound?
Answer: 95%

Question: What about the kinase still bound, per cent of control (NEK6 (human)) of the same compound?
Answer: 100%

Question: And the kinase still bound, per cent of control (RPS6KA5 KD2 (human))?
Answer: 99%

Question: And the kinase still bound, per cent of control (LRRK2 (human))?
Answer: 100%

Question: And the kinase still bound, per cent of control (PRKCQ (human))?
Answer: 94%

Question: What about the kinase still bound, per cent of control (MAK (human)) of the same compound?
Answer: 100%

Question: And the kinase still bound, per cent of control (PRKCI (human))?
Answer: 79%

Question: What about the kinase still bound, per cent of control (FES (human)) of the same compound?
Answer: 100%

Question: And the kinase still bound, per cent of control (VRK2 (human))?
Answer: 76%

Question: What about the kinase still bound, per cent of control (LATS2 (human)) of the same compound?
Answer: 82%

Question: And the kinase still bound, per cent of control (CAMK2G (human))?
Answer: 100%

Question: What about the kinase still bound, per cent of control (MAP3K13 (human)) of the same compound?
Answer: 100%

Question: And the kinase still bound, per cent of control (MAP3K11 (human))?
Answer: 100%

Question: And the kinase still bound, per cent of control (CSNK1A1 (human))?
Answer: 50%

Question: What about the kinase still bound, per cent of control (TSSK1B (human)) of the same compound?
Answer: 82%

Question: And the kinase still bound, per cent of control (CSK (human))?
Answer: 93%

Question: What about the kinase still bound, per cent of control (CSNK2A1 (human)) of the same compound?
Answer: 96%

Question: And the kinase still bound, per cent of control (DAPK1 (human))?
Answer: 100%

Question: And the kinase still bound, per cent of control [4]?
Answer: 66%

Question: What about the kinase still bound, per cent of control (CDC42BPA (human)) of the same compound?
Answer: 85%

Question: What about the kinase still bound, per cent of control (CDK2 (human)) of the same compound?
Answer: 92%

Question: What about the kinase still bound, per cent of control (SGK110 (human)) of the same compound?
Answer: 81%

Question: Which kinase still bound, per cent of control [1] does the source give for `Cc1cn(-c2cc(C(=O)Nc3ccc(C)c(NC(=O)c4ccno4)c3)cc(C(F)(F)F)c2)cn1` here?
Answer: 100%

Question: What about the kinase still bound, per cent of control (MAP4K2 (human)) of the same compound?
Answer: 100%

Question: What about the kinase still bound, per cent of control (CAMK1D (human)) of the same compound?
Answer: 100%

Question: What about the kinase still bound, per cent of control (MYO3A (human)) of the same compound?
Answer: 100%

Question: What about the kinase still bound, per cent of control (MAP2K2 (human)) of the same compound?
Answer: 100%

Question: What about the kinase still bound, per cent of control (ABL1 (human)) of the same compound?
Answer: 8%

Question: And the kinase still bound, per cent of control (EIF2AK2 (human))?
Answer: 100%

Question: What about the kinase still bound, per cent of control (SRPK2 (human)) of the same compound?
Answer: 100%

Question: And the kinase still bound, per cent of control (GRK1 (human))?
Answer: 100%

Question: What about the kinase still bound, per cent of control [2] of the same compound?
Answer: 100%

Question: And the kinase still bound, per cent of control (CDK16 (human))?
Answer: 100%

Question: What about the kinase still bound, per cent of control [3] of the same compound?
Answer: 100%

Question: What about the kinase still bound, per cent of control (STK17A (human)) of the same compound?
Answer: 100%

Question: And the kinase still bound, per cent of control (EPHA8 (human))?
Answer: 0.3%

Question: What about the kinase still bound, per cent of control (NEK6 (human)) of the same compound?
Answer: 100%

Question: What about the kinase still bound, per cent of control (RPS6KA5 KD2 (human)) of the same compound?
Answer: 100%

Question: And the kinase still bound, per cent of control (PRKCQ (human))?
Answer: 100%

Question: And the kinase still bound, per cent of control (MAK (human))?
Answer: 100%

Question: And the kinase still bound, per cent of control (FES (human))?
Answer: 100%

Question: And the kinase still bound, per cent of control (LATS2 (human))?
Answer: 100%

Question: And the kinase still bound, per cent of control (CAMK2G (human))?
Answer: 100%

Question: And the kinase still bound, per cent of control (MAP3K13 (human))?
Answer: 100%

Question: And the kinase still bound, per cent of control (MAP3K11 (human))?
Answer: 100%

Question: And the kinase still bound, per cent of control (TSSK1B (human))?
Answer: 100%

Question: And the kinase still bound, per cent of control (CSK (human))?
Answer: 29%

Question: What about the kinase still bound, per cent of control (CSNK2A1 (human)) of the same compound?
Answer: 100%

Question: What about the kinase still bound, per cent of control (DAPK1 (human)) of the same compound?
Answer: 100%

Question: What about the kinase still bound, per cent of control [4] of the same compound?
Answer: 100%

Question: And the kinase still bound, per cent of control (CDC42BPA (human))?
Answer: 100%

Question: And the kinase still bound, per cent of control (CDK2 (human))?
Answer: 100%

Question: And the kinase still bound, per cent of control (SGK110 (human))?
Answer: 100%

Question: What does the source list for `CCOc1cc(N2CCC(O)CC2)ccc1Nc1ncc2c(n1)N(C)c1ccccc1C(=O)N2C`?
Answer: kinase still bound, per cent of control [1]: 100%; kinase still bound, per cent of control (MAP4K2 (human)): 100%; kinase still bound, per cent of control (CAMK1D (human)): 100%; kinase still bound, per cent of control (MYO3A (human)): 100%; kinase still bound, per cent of control (MAP2K2 (human)): 100%; kinase still bound, per cent of control (ABL1 (human)): 100%; kinase still bound, per cent of control (EIF2AK2 (human)): 100%; kinase still bound, per cent of control (SRPK2 (human)): 100%; kinase still bound, per cent of control (GRK1 (human)): 100%; kinase still bound, per cent of control [2]: 100%; kinase still bound, per cent of control (CDK16 (human)): 100%; kinase still bound, per cent of control [3]: 100%; kinase still bound, per cent of control (BRAF (human)): 100%; kinase still bound, per cent of control (STK17A (human)): 100%; kinase still bound, per cent of control (EPHA8 (human)): 100%; kinase still bound, per cent of control (NEK6 (human)): 100%; kinase still bound, per cent of control (RPS6KA5 KD2 (human)): 100%; kinase still bound, per cent of control (PRKCQ (human)): 100%; kinase still bound, per cent of control (MAK (human)): 100%; kinase still bound, per cent of control (FES (human)): 100%; kinase still bound, per cent of control (LATS2 (human)): 100%; kinase still bound, per cent of control (CAMK2G (human)): 100%; kinase still bound, per cent of control (MAP3K13 (human)): 100%; kinase still bound, per cent of control (MAP3K11 (human)): 100%; kinase still bound, per cent of control (TSSK1B (human)): 100%; kinase still bound, per cent of control (CSK (human)): 100%; kinase still bound, per cent of control (CSNK2A1 (human)): 100%; kinase still bound, per cent of control (DAPK1 (human)): 100%; kinase still bound, per cent of control [4]: 100%; kinase still bound, per cent of control (CDC42BPA (human)): 100%; kinase still bound, per cent of control (CDK2 (human)): 100%; kinase still bound, per cent of control (SGK110 (human)): 100%
